Test results taken from US8183262B2, “Pyridine derivatives as mGluR2 antagonists” (Hoffmann-La Roche Inc., priority 2007, dated 2012).

melting point	SMILES
240 °C	Cc1cc(-c2ccc(Cl)c(C)c2)nc(-c2cccc(-c3ccc(S(N)(=O)=O)s3)c2)n1 [Example 380, 5-{3-[4-(4-Chloro-3-methyl-phenyl)-6-methyl-pyrimidin-2-yl]-phenyl}-thiophene-2-sulfonic acid amide]
192.5 °C	O=S(=O)(NCCO)c1cccc(-c2cc(-c3nc(-c4ccc(C(F)(F)F)cc4)cc(C(F)(F)F)n3)ccn2)c1 [Example 381, N-(2-Hydroxy-ethyl)-3-{4-[4-trifluoromethyl-6-(4-trifluoromethyl-phenyl)-pyrimidin-2-yl]-pyridin-2-yl}-benzenesulfonamide]
221 °C	CC(C)(CO)NS(=O)(=O)c1cccc(-c2cc(-c3nc(-c4ccc(C(F)(F)F)cc4)cc(C(F)(F)F)n3)ccn2)c1 [Example 382, N-(2-Hydroxy-1,1-dimethyl-ethyl)-3-{4-[4-trifluoromethyl-6-(4-trifluoromethyl-phenyl)-pyrimidin-2-yl]-pyridin-2-yl}-benzenesulfonamide]
186 °C	O=S(=O)(c1cccc(-c2cc(-c3nc(-c4ccc(C(F)(F)F)cc4)cc(C(F)(F)F)n3)ccn2)c1)N(CCO)CCO [Example 383, N,N-Bis-(2-hydroxy-ethyl)-3-{4-[4-trifluoromethyl-6-(4-trifluoromethyl-phenyl)-pyrimidin-2-yl]-pyridin-2-yl}-benzenesulfonamide]
228 °C	NS(=O)(=O)c1ccc(-c2cn(-c3nc(-c4ccc(F)c(F)c4)cc(C(F)(F)F)n3)cn2)s1 [Example 385, 5-{1-[4-(3,4-Difluoro-phenyl)-6-trifluoromethyl-pyrimidin-2-yl]-1H-imidazol-4-yl}-thiophene-2-sulfonic acid amide]
244.5 °C	NS(=O)(=O)c1ccc(-c2cn(-c3nc(-c4ccc(F)cc4)cc(C(F)(F)F)n3)cn2)s1 [Example 386, 5-{1-[4-(4-Fluoro-phenyl)-6-trifluoromethyl-pyrimidin-2-yl]-1H-imidazol-4-yl}-thiophene-2-sulfonic acid amide]
260 °C	NS(=O)(=O)c1cccc(-c2cn(-c3nc(-c4ccc(F)cc4)cc(C(F)(F)F)n3)cn2)c1 [Example 387, 3-{1-[4-(4-Fluoro-phenyl)-6-trifluoromethyl-pyrimidin-2-yl]-1H-imidazol-4-yl}-benzenesulfonamide]
238 °C	NS(=O)(=O)c1ccc(-c2cccc(-c3nc(-c4ccc(F)c(F)c4)cc(C(F)(F)F)n3)c2)s1 [Example 388, 5-{3-[4-(3,4-Difluoro-phenyl)-6-trifluoromethyl-pyrimidin-2-yl]-phenyl}-thiophene-2-sulfonic acid amide]
153 °C	O=S(=O)(NCCO)c1cccc(-c2cccc(-c3nc(-c4ccc(C(F)(F)F)cc4)cc(C(F)(F)F)n3)c2)c1 [Example 391, 3′-[4-Trifluoromethyl-6-(4-trifluoromethyl-phenyl)-pyrimidin-2-yl]-biphenyl-3-sulfonic acid (2-hydroxy-ethyl)-amide]
111.5 °C	O=S(=O)(c1cccc(-c2cccc(-c3nc(-c4ccc(C(F)(F)F)cc4)cc(C(F)(F)F)n3)c2)c1)N(CCO)CCO [Example 392, 3′-[4-Trifluoromethyl-6-(4-trifluoromethyl-phenyl)-pyrimidin-2-yl]-biphenyl-3-sulfonic acid bis-(2-hydroxy-ethyl)-amide]
211 °C	NS(=O)(=O)c1cccc(-c2cccc(-c3nc(-c4ccc(F)c(F)c4)cc(C(F)(F)F)n3)c2)c1 [Example 393, 3′-[4-(3,4-Difluoro-phenyl)-6-trifluoromethyl-pyrimidin-2-yl]-biphenyl-3-sulfonic acid amide]
228.5 °C	NS(=O)(=O)c1ccc(-c2cccc(-c3nc(-c4ccc(F)cc4)cc(C(F)(F)F)n3)c2)s1 [Example 395, 5-{3-[4-(4-Fluoro-phenyl)-6-trifluoromethyl-pyrimidin-2-yl]-phenyl}-thiophene-2-sulfonic acid amide]
241.5 °C	NS(=O)(=O)c1cccc(-c2cn(-c3nc(-c4ccc(F)c(F)c4)cc(C(F)(F)F)n3)cn2)c1 [Example 396, 3-{1-[4-(3,4-Difluoro-phenyl)-6-trifluoromethyl-pyrimidin-2-yl]-1H-imidazol-4-yl}-benzenesulfonamide]

The next lines start with the compound.

SMILES	melting point
Cc1cc(-c2ccc(C(F)(F)F)cc2)cc(-c2ccnc(-c3cccc(S(=O)(=O)NC(C)(C)CO)c3)c2)n1 [Example 349, N-(2-Hydroxy-1,1-dimethyl-ethyl)-3-[6-methyl-4-(4-trifluoromethyl-phenyl)-[2,4′]bipyridinyl-2′-yl]-benzenesulfonamide]	92 °C
Cc1cc(-c2ccc(C(F)(F)F)cc2)cc(-c2cccc(-c3cccc(NS(=O)(=O)N4CCOCC4)c3)n2)n1 [Example 351, Morpholine-4-sulfonic acid {3-[6′-methyl-4′-(4-trifluoromethyl-phenyl)-[2,2′]bipyridinyl-6-yl]-phenyl}-amide]	191 °C
Cc1cc(-c2ccc(C(F)(F)F)cc2)cc(-c2cccc(-c3ccnc(N)c3)n2)n1 [Example 358, 6-Methyl-4-(4-trifluoromethyl-phenyl)-[2,2′;6′,4″]terpyridin-2″-ylamine]	160 °C
Cc1cc(-c2ccc(C(F)(F)F)cc2)cc(-c2cccc(-c3cccc(S(=O)(=O)NCCO)c3)n2)n1 [Example 359, N-(2-Hydroxy-ethyl)-3-[6′-methyl-4′-(4-trifluoromethyl-phenyl)-[2,2′]bipyridinyl-6-yl]-benzenesulfonamide]	110 °C (dec.)
Cc1cc(-c2ccc(C(F)(F)F)cc2)nc(-c2ccnc(-c3cccc(N)c3)c2)c1 [Example 361, 3-[4-Methyl-6-(4-trifluoromethyl-phenyl)-[2,4]bipyridinyl-2′-yl]-phenylamine]	87 °C (dec.)
CC(C)(C)NS(=O)(=O)c1cccc(-c2cccc(-c3nc(-c4ccc(C(F)(F)F)cc4)cc(C(F)(F)F)n3)n2)c1 [Example 362, N-tert-Butyl-3-{6-[4-trifluoromethyl-6-(4-trifluoromethyl-phenyl)-pyrimidin-2-yl]-pyridin-2-yl}-benzenesulfonamide]	75 °C
Cc1cc(-c2ccc(C(F)(F)F)cc2)cc(-c2cccc(-c3cccc(S(=O)(=O)NC(C)(C)CO)c3)n2)n1 [Example 363, N-(2-Hydroxy-1,1-dimethyl-ethyl)-3-[6′-methyl-4′-(4-trifluoromethyl-phenyl)-[2,2′]bipyridinyl-6-yl]-benzenesulfonamide]	171 °C
NS(=O)(=O)c1cccc(-c2cccc(-c3nc(-c4ccc(C(F)(F)F)cc4)cc(C(F)(F)F)n3)n2)c1 [Example 364, 3-{6-[4-Trifluoromethyl-6-(4-trifluoromethyl-phenyl)-pyrimidin-2-yl]-pyridin-2-yl}-benzenesulfonamide]	244 °C (dec.)
Cc1cc(-c2ccc(C(F)(F)F)cc2)cc(-c2cccc(-c3cccc(S(=O)(=O)N4CCS(=O)(=O)CC4)c3)n2)n1 [Example 368, 6′-[3-(1,1-Dioxo-1λ6-thiomorpholine-4-sulfonyl)-phenyl]-6-methyl-4-(4-trifluoromethyl-phenyl)-[2,2′]bipyridinyl]	230 °C (dec.)
Cc1cc(-c2ccc(C(F)(F)F)cc2)cc(-c2cccc(-c3cccc(S(=O)(=O)N4CCCC4)c3)n2)n1 [Example 369, 6-Methyl-6′-[3-(pyrrolidine-1-sulfonyl)-phenyl]-4-(4-trifluoromethyl-phenyl)-[2,2′]bipyridinyl]	174 °C
Cc1cc(-c2ccc(C(F)(F)F)cc2)cc(-c2cccc(-c3cccc(S(=O)(=O)N4CCN(C)CC4)c3)n2)n1 [Example 370, 6-Methyl-6′-[3-(4-methyl-piperazine-1-sulfonyl)-phenyl]-4-(4-trifluoromethyl-phenyl)-[2,2′]bipyridinyl]	167 °C (dec.)
COCCNS(=O)(=O)c1cccc(-c2cccc(-c3cc(-c4ccc(C(F)(F)F)cc4)cc(C)n3)n2)c1 [Example 371, N-(2-Methoxy-ethyl)-3-[6′-methyl-4′-(4-trifluoromethyl-phenyl)-[2,2′]bipyridinyl-6-yl]-benzenesulfonamide]	126 °C
Cc1cc(-c2ccc(C(F)(F)F)cc2)cc(-c2cccc(-c3cccc(S(=O)(=O)NCCOCCO)c3)n2)n1 [Example 372, N-[2-(2-Hydroxy-ethoxy)-ethyl]-3-[6′-methyl-4′-(4-trifluoromethyl-phenyl)-[2,2′]bipyridinyl-6-yl]-benzenesulfonamide]	123 °C
Cc1cc(-c2ccc(C(F)(F)F)cc2)cc(-c2cccc(-c3cccc(S(=O)(=O)N4CCOCC4)c3)n2)n1 [Example 373, 6-Methyl-6′-[3-(morpholine-4-sulfonyl)-phenyl]-4-(4-trifluoromethyl-phenyl)-[2,2′]bipyridinyl]	216 °C
CCC(=O)NS(=O)(=O)c1cccc(-c2cc(-c3nc(-c4ccc(C(F)(F)F)cc4)cc(C(F)(F)F)n3)ccn2)c1 [Example 374, N-Propionyl-3-{4-[4-trifluoromethyl-6-(4-trifluoromethyl-phenyl)-pyrimidin-2-yl]-pyridin-2-yl}-benzenesulfonamide]	144 °C
CCC(=O)NS(=O)(=O)c1ccc(-c2cc(-c3nc(-c4ccc(C(F)(F)F)cc4)cc(C(F)(F)F)n3)ccn2)s1 [Example 375, 5-{4-[4-Trifluoromethyl-6-(4-trifluoromethyl-phenyl)-pyrimidin-2-yl]-pyridin-2-yl}-thiophene-2-sulfonic acid propionyl-amide]	257 °C
Cc1cc(-c2ccc(Cl)c(C)c2)nc(-c2cccc(-c3ccc(N)nc3)c2)n1 [Example 376, 5-{3-[4-(4-Chloro-3-methyl-phenyl)-6-methyl-pyrimidin-2-yl]-phenyl}-pyridin-2-ylamine]	158 °C (dec.)
Nc1ccc(-c2cn(-c3nc(-c4ccc(F)cc4)cc(C(F)(F)F)n3)cn2)cn1 [Example 378, 5-{1-[4-(4-Fluoro-phenyl)-6-trifluoromethyl-pyrimidin-2-yl]-1H-imidazol-4-yl}-pyridin-2-ylamine]	249.5 °C
Cc1cc(-c2ccc(Cl)c(C)c2)nc(-c2cccc(-c3cccc(S(N)(=O)=O)c3)c2)n1 [Example 379, 3′-[4-(4-Chloro-3-methyl-phenyl)-6-methyl-pyrimidin-2-yl]-biphenyl-3-sulfonic acid amide]	201 °C
